Assay results as given in patent publication US20230312700A1, “TREATMENT OF A DISEASE OF THE GASTROINTESTINAL TRACT WITH A TNF INHIBITOR” (Progenity, Inc., priority 2018, published 2023).

Assay: Example 10: tacrolimus tissue, plasma, rectal and GI content pharmacokinetics, oral vs intra-cecal ingestible device
Parameters: species or system Yorkshire-Cross farm swine
Details: female, Yorkshire-Cross, swine, in vivo, 0.09 mg/kg
Experimental: The primary objective of this study was to compare the tissue, plasma, rectal sample, and GI content pharmacokinetics of tacrolimus through oral versus intra-cecal ingestible device delivery in normal Yorkshire-Cross farm swine.
No further randomization procedure was employed.
Animals in Group 1 received an ingestible device containing 0.8 mL of vehicle solution (80% alcohol, 20% HCO-60). Animals in Group 2 received orally […] liquid formulation of tacrolimus at 4 mg/0.8 mL per animal (Prograf: 5 mg/mL). Animals in Group 3 received intra-cecally an ingestible device containing tacrolimus at 1 mg in 0.8 mL per ingestible device. […]
Approximately 200-400 mg of rectal content were collected, if available, with a fecal swab (Copan Diagnostics Nylon Flocked Dry Swabs, 502CS01). The fecal swab was pre-weighed and weighed after collection in the collection tube (Sterile Tube and Cap No Media, PFPM913S), and the sample weight was recorded. […]
For tissue necropsy, small intestine fluid and cecal fluid were collected separately from all the animals into two separate square plastic bottles, and stored at −20° C. The length and diameter of the cecum and the colon was measured from one animal in each group and recorded for reference. […] All samples were weighed, and the tissue sample weights were recorded. […]

concentration at 12 h: 4.38 ± 0.516 ng/mL
SMILES: C=CC[C@@H]1/C=C(\C)C[C@H](C)C[C@H](OC)[C@H]2O[C@@](O)(C(=O)C(=O)N3CCCC[C@H]3C(=O)O[C@H](/C(C)=C/[C@@H]3CC[C@@H](O)[C@H](OC)C3)[C@H](C)[C@@H](O)CC1=O)[C@H](C)C[C@@H]2OC [tacrolimus]
